Assay results published in patent publication US6593365B1, “Diflunisal esters and related compounds” (The University of Queensland, priority 1997, dated 2003).
“Also recorded” adds a separate entry of the source.

Columns and labels:
[1] = system: platelets (platelet cyclooxygenase acylation); test: Platelet washing study (ADGS); type: cell-based, human; conditions: platelet-rich plasma pretreated with drug at 37° C.; 200 μM arachidonic acid; before/after two-fold washing
From the text: It is generally accepted that aspirin inhibits platelet cyclooxygenase through an irreversible acetylation process. In separate experiments, the platelet acylation by these O-acyl salicylates was investigated. It is hypothesised that if the acylation were reversible, then the O-acyl moieties might be removed by platelet washing. Consequently, the washed platelets would become susceptible to aggregation by arachidonic acid.
A platelet-washing technique, ADGS (albumin density gradient separation) similar to one used by Spriggs and Alexander (Spriggs, 1960, Nature 188 863), was employed for this purpose. The principle underlying ADGS is simply that of centrifuging platelets into a continuous density gradient produced by mixing the interface between platelet-rich plasma and 40-45% bovine serum albumin. Thereby the platelets are gently sedimented into a zone with a specific gravity equal to their own, and they are protected by the cushion of albumin from disruptive squashing on the hard surface of the centrifuge tube.
Flat-bottomed, polystyrene tubes of 10 mL capacity with stopper were used for platelet washing by ADGS. Pasteur pipettes were siliconised and used for transferring plasma and wash fluid. Stirring rods were made from Pasteur pipettes by heating the tips, forming a right-angle ben approximately 1 cm long and then siliconised. […]

[2] = cited from earlier work
[3] = at 25° C. (Foye 1989); cited from earlier work

Compound	Platelet response to arachidonic acid after pretreatment (platelet washing study) [1]	solubility ([2]; at 25° C., The Merck Index 1983) [mM]	Maximum solubility ([2]; water, 25° C., literature value (Merck Index)) [mM]	pKa [3]
O-acetylsalicylic acid [Compound C2SA, reference compound]	non-reversibly inhibited; also recorded: still refractory to arachidonic acid	18.5	18.5	3.5
CCCCCC(=O)Oc1ccccc1C(=O)O [Compound C6SA, n-hexanoylsalicylic acid]	non-reversibly inhibited; also recorded: still refractory to arachidonic acid	–	–	–
